Assay results as given in patent US20180086749A1, “INHIBITORS OF VIRUSES” (priority 2015, published 2018).
Values joined by “and” are separate entries in the source; they are usually repeats but may differ in a detail not shown here. Equal values may be shown once. Read-outs that look alike come from different tables or passages of the source.

Legend:
VEEV V3526-luc = assay: microbe, parasite or virus in culture; assay type: cell-based, Venezuelan equine encephalitis virus; conditions: for EC50: Venezuelan equine encephalitis virus
in vitro = conditions: African green monkey, CC50 μM (Vero76)
alphaviruses = assay type: cell-based; conditions: 5 μM
[1] = system: IFN α/β in HEK 293T culture supernatant; assay type: cell-based, human; conditions: 18 hours
Ebola virus-GFP = assay: microbe, parasite or virus in culture; assay type: cell-based, Zaire ebolavirus
[2] = system: VEEV TrD (Trinidad donkey); assay type: cell-based, Venezuelan equine encephalitis virus
RSV Long = assay type: cell-based, Respiratory syncytial virus
VEEV (TC83 strain) = assay: microbe, parasite or virus in culture; assay type: cell-based, Venezuelan equine encephalitis virus
Influenza virus A (H1N1) = assay type: cell-based
[3] = system: cellular metabolites of HEK 293T cells; assay: Metabolomics analysis of cellular metabolites; assay type: cell-based, human
ZIKV/MR766 = assay: Dose-response EC50, ZIKV/MR766; assay type: cell-based; conditions: Zika virus, Vero 76, Vero76, MOI 0.05
HSV-2 = assay type: cell-based, Herpes simplex virus type-2
CHIKV (S27 strain) = CHIKV (S27 strain) CPE assay; assay type: cell-based, Chikungunya virus
SARS-CoV = assay type: cell-based, Severe acute respiratory syndrome coronavirus
JEV [4] = assay type: cell-based, Japanese Encephalitis virus
[5] = system: innate immune response genes in HEK 293T cells; assay type: cell-based, human
CHIKV S27 = assay type: cell-based, Chikungunya virus
WNV/NY99 = assay: Dose-response EC50, WNV; assay type: cell-based; conditions: West Nile virus
YFV 17D = assay type: cell-based, Yellow Fever virus
pVSV-luc = assay: microbe, parasite or virus in culture; assay type: cell-based, Vesicular stomatitis virus; conditions: for EC50: Vesicular stomatitis virus
VEEV TrD = assay: microbe, parasite or virus in culture; assay type: cell-based; conditions: Venezuelan equine encephalitis virus
JEV [6] = assay: Dose-response EC50, JEV; assay type: cell-based; conditions: Japanese encephalitis virus
WEEV = assay: cells; assay type: cell-based, West equine encephalitis virus California
HEK 293T cells = assay: ApoTox-Glo Triplex viability, cytotoxicity, apoptosis assay; conditions: four days exposure
VEEV TC-83 = assay type: cell-based, Venezuelan equine encephalitis virus
LCMV-ARM = assay type: cell-based, Lymphocytic Choriomeningitis Virus
[7] = ML416-treated / DMSO-treated, 18 hours
[8] = ML416 / DMSO, metabolite not confirmed by standard

SMILES: CN(C(=O)Cc1sccc1F)c1nc2c(s1)CCCC2 [ML416, 2-(3-fluorothiophen-2-yl)-N-methyl-N-(4,5,6,7-tetrahydro-1,3-benzothiazol-2-yl)acetamide]
- antiviral effect (VEEV V3526-luc): moderate effect
- effect of DHO addition on antiviral activity (VEEV V3526-luc): did not affect the antiviral activity
- EC50 (VEEV V3526-luc): 170 nM
- EC50 (VEEV V3526-luc; BHK, read-out: EC50 V3526-luc): 1120 nM
- EC50 (VEEV V3526-luc; HEK-293T, read-out: EC50 V3526-luc): 150 nM
- EC50 (VEEV V3526-luc; N2a, read-out: EC50 V3526-luc): > 50000 nM
- EC50 (VEEV V3526-luc; NIH3T3, read-out: EC50 V3526-luc): > 50000 nM
- EC50 (VEEV V3526-luc; Vero 76, read-out: EC50 V3526-luc): 170 nM
- EC50 (VEEV V3526-luc; in Mus musculus): > 50000 nM
- EC50 (VEEV V3526-luc; read-out: EC50 V3526-luc): 490 nM
- EC50 (VEEV V3526-luc; read-out: EC50 values range): 150 to 680 nM
- CC50 (in vitro): > 50 µM
- Log reduction in progeny virus titers (alphaviruses): greater than 4 Log
- IFN α/β in cell culture supernatant [1]: no measurable quantity of IFNs was detected
- EC50 (Ebola virus-GFP): 260 nM
- EC50 (Ebola virus-GFP; Zaire ebolavirus, HeLa): 300 nM
- Log titer inhibition at 5 μM [2]: −4.768 Log
- Log titer inhibition at 5 μM (RSV Long): −2.27 ± 0.1 Log
- Log titer reduction (RSV Long; 5 μM): ~2 Log
- EC50 (VEEV (TC83 strain); Venezuelan equine encephalitis virus): 350 nM
- EC50 (VEEV (TC83 strain); read-out: VEEV (TC83 strain) CPE Assay Potency mean EC50): 1000 nM and 900 nM
- Log titer inhibition at 5 μM (Influenza virus A (H1N1)): −3.03 Log
- Log reduction in progeny virus titers (Influenza virus A (H1N1); 5 μM): greater than 3 Log
- Fold Change: 3-((carboxymethyl)(methyl)amino)-3-oxopropanoic acid [3, 7]: 0.46 fold
- Fold Change: Citirc acid [3, 7]: 0.62 fold
- Fold Change: D-(−)-Lactic acid [3, 7]: 0.76 fold
- Fold Change: DL-Ornithine [3, 7]: 0.53 fold
- Fold Change: DL-Phenylalanine [3, 7]: 0.71 fold
- Fold Change: Fumaric Acid [3, 7]: 11 fold and 11.00 fold
- Fold Change: Glycine [3, 7]: 2.80 fold
- Fold Change: L-Asparagine [3, 7]: 0.41 fold
- Fold Change: L-Aspartic acid [3, 7]: 2.07 fold
- Fold Change: L-Glutamic acid [3, 7]: 0.09 fold
- Fold Change: L-Isoleucine [3, 7]: 0.45 fold
- Fold Change: L-Lysine [3, 7]: 2.76 fold
- Fold Change: L-Proline [3, 7]: 0.28 fold
- Fold Change: L-Threonine [3, 7]: 0.54 fold
- Fold Change: L-Tyrosine [3, 7]: 0.86 fold
- Fold Change: Lauric acid; Dodecanoic acid [3, 7]: 0.73 fold
- Fold Change: Oxalic acid [3, 7]: 0.66 fold
- Fold Change: Phenylalanine [3, 7]: 0.40 fold
- Fold Change: Pyruvic acid [3, 7]: 1.60 fold
- Fold Change: Tryptophan [3, 7]: 1.23 fold
- presence of free uridine ([3]; ML416-treated groups): not detected
- Fold Change: 1-phenylpropan-2-amine; Amphetamine; Fenopromin* [3, 8]: 0.80 fold
- Fold Change: 2-(Dimethylamino)ethyl neopentyl carbonate* [3, 8]: 1.49 fold
- Fold Change: 3,3-diethoxy-2-hydroxypropyl dihydrogen phosphate* [3, 8]: 0.58 fold
- Fold Change: 3-Glycerophosphate* [3, 8]: 1.71 fold
- Fold Change: 3-hydroxy-2-methylpropanoic acid; 3-Hydroxyisobutyric acid* [3, 8]: 0.70 fold
- Fold Change: Adenine* [3, 8]: 1.37 fold
- Fold Change: Dihydromuconic acid; trans-3-Hexenedioic acid* [3, 8]: 0.23 fold
- Fold Change: Ethylcholine mustard* [3, 8]: 0.49 fold
- Fold Change: L-Norvaline* [3, 8]: 0.52 fold
- Fold Change: Niacinamine* [3, 8]: 0.74 fold
- Fold Change: O-phosphorylethanolamine; 2-aminoethyl dihydrogen phosphate* [3, 8]: 1.35 fold
- Fold Change: Ribitol* [3, 8]: 0.66 fold
- Fold Change: Scyllo-Inositol* [3, 8]: 1.23 fold
- Fold Change: meso-Erythritol; Erythritol* [3, 8]: 0.69 fold
- presence of dihydroorotic acid (DHO) ([3]; ML416 vs mock-treated): found only in ML416-treated groups
- presence of orotic acid ([3]; ML416 vs mock-treated): found only in ML416-treated groups
- EC50 (ZIKV/MR766): 1100 nM
- CC50 (Vero 76 cells): > 50000 nM
- Selective Index 50 (SI50) (Vero 76 cells): 106.9
- concentration up to which no apparent cytotoxicity (Vero 76 cells; African green monkey): up to 12.5 μM
- cytotoxicity (Vero 76 cells; African green monkey): > 40 µM
- cytotoxicity in Vero 76 cells (Vero 76 cells; African green monkey): > 50 µM
- Log titer inhibition at 5 μM (HSV-2): 0.01 ± 0.43 Log
- EC50 (CHIKV (S27 strain); Chikungunya virus): 290 nM
- inhibition of CHIKV-induced cytopathic effect (CHIKV (S27 strain); in words): in the nanomolar range
- antiviral activity (blank spaces of Table 2) (SARS-CoV): initial results have shown activity
- Log titer inhibition at 5 μM (JEV [4]): −1.3 ± −0.43 Log
- Log reduction (JEV [4]; 5 μM): ~1.3 Log
- IFIH1 expression [5]: repressed
- IFIT1 gene upregulation [5]: more than 10 fold
- IFNB1 expression [5]: repressed
- IRF7 gene upregulation [5]: more than 10 fold
- MYD88 expression [5]: did not show any changes
- OAS1 expression [5]: did not show any changes
- OAS2 gene upregulation [5]: more than 10 fold
- RIG-I gene upregulation [5]: more than 10 fold
- reduction of CHIKV viral titer in vitro (CHIKV S27): 4 log
- Log titer inhibition at 5 μM (CHIKV S27; 5 μM): −4.024 Log
- EC50 (WNV/NY99; Table 2): 2400 nM
- EC50 (WNV/NY99; Vero 76, Vero76, MOI 0.01, Table 3): 2400 nM
- Log titer inhibition at 5 μM (YFV 17D): −2.32 Log
- Log titer reduction (YFV 17D; 5 μM): ~2 Log
- antiviral effect (pVSV-luc): moderate effect
- EC50 (pVSV-luc): 190 nM
- EC50 (pVSV-luc; BHK, read-out: EC50 pVSV-Gp): 8260 nM
- EC50 (pVSV-luc; HEK-293T, read-out: EC50 pVSV-Gp): 170 nM
- EC50 (pVSV-luc; N2a, read-out: EC50 pVSV-Gp): > 50000 nM
- EC50 (pVSV-luc; NIH3T3, read-out: EC50 pVSV-Gp): > 50000 nM
- EC50 (pVSV-luc; in Mus musculus): > 50000 nM
- EC50 (pVSV-luc; read-out: EC50 pVSV-Gp): 3820 nM
- EC50 (pVSV-luc; read-out: EC50 values range): 150 to 680 nM
- EC50 (VEEV TrD): 460 nM
- EC50 (JEV [6]): 1900 nM
- EC50 (JEV [6]; Vero 76, JEV, Vero76, MOI 0.05, Table 3, read-out: EC50): 1900 nM
- EC50 (WEEV): 960 nM
- concentration up to which no significant cytotoxicity and apoptosis (HEK 293T cells): up to 25 μM
- Log titer inhibition at 5 μM (VEEV TC-83): −2.536 ± 0.018 Log
- Log titer inhibition at 5 μM (LCMV-ARM): −3.466 Log
- Log reduction in progeny virus titers (LCMV-ARM; 5 μM): greater than 3 Log
